Values of other authors, collected in patent publication CN114917233A, “一种包含核苷类似物的药物组合物及其制备方法和应用” (Suzhou Vigonvita Life Sciences Co Ltd, priority 2022, dated 2022).

Key:
SARS-CoV-2 [1] = test system: SARS-CoV-2
SARS-CoV-2 [2] = settings: 5 μM, in vitro

| Structure (SMILES) | inhibition of SARS-CoV-2 replication (in words) (SARS-CoV-2 [1]) | oral bioavailability (in words) | inhibition of virus replication compared with RDV (in words) (SARS-CoV-2 [1]; versus RDV) | replication inhibition rate (SARS-CoV-2 [2]) |
| --- | --- | --- | --- | --- |
| CCC(CC)COC(=O)[C@H](C)N[P@](=O)(OC[C@H]1O[C@@](C#N)(c2ccc3c(N)ncnn23)[C@H](O)[C@@H]1O)Oc1ccccc1 [RDV] | 具有抑制作用 | – | – | – |
| N#C[C@@]1(c2ccc3c(N)ncnn23)O[C@H](CO)[C@@H](O)[C@H]1O [GS-441524] | 具有抑制作用 | 低 | 更强的病毒复制抑制作用 | – |
| CC(C)C(=O)OC[C@H]1O[C@@](C#N)(c2ccc3c(N)ncnn23)[C@H](OC(=O)C(C)C)[C@@H]1OC(=O)C(C)C [式I化合物, (2R,3R,4R,5R)-2-(4-氨基吡咯并[2,1-f][1,2,4]三嗪-7-基)-2-氰基-5-((异丁酰氧基)甲基)四氢呋喃-3,4-二基双(2-甲基丙酸酯)] | – | – | – | 99% |
